Experimental data reported in the NIST ThermoML archive (doi:10.1007/s10765-005-8096-3).

Assay: refractive index (Na D-line) (dimensionless); xn = mol fraction of the nth substance listed
Conditions: 101 kPa, Liquid, Standard Abbe refractometry

CCCCOC(C)=O [butyl ethanoate] + Cc1ccc(C)cc1
refractive index
Conditions	293.15 K	298.15 K	303.15 K	308.15 K	313.15 K
x1 = 0.0494	1.49045	1.48779	1.48504	1.48238	1.47977
x1 = 0.1014	1.48487	1.48216	1.4794	1.47685	1.47409
x1 = 0.1494	1.4798	1.4771	1.47436	1.47174	1.46903
x1 = 0.2012	1.47424	1.47153	1.46878	1.46623	1.46356
x1 = 0.248	1.46931	1.46663	1.46387	1.46134	1.45863
x1 = 0.3077	1.46309	1.46041	1.45768	1.45514	1.45247
x1 = 0.3519	1.45847	1.45583	1.45312	1.45058	1.44789
x1 = 0.404	1.45307	1.45044	1.44776	1.44522	1.44259
x1 = 0.4519	1.44815	1.44554	1.44286	1.44032	1.4377
x1 = 0.4999	1.44322	1.44061	1.43796	1.43542	1.43282
x1 = 0.5505	1.43808	1.4355	1.43288	1.43034	1.42775
x1 = 0.5991	1.43317	1.4306	1.42798	1.42546	1.42286
x1 = 0.6518	1.42787	1.42531	1.42272	1.42021	1.41762
x1 = 0.6993	1.42315	1.42063	1.41806	1.41551	1.41295
x1 = 0.749	1.41825	1.41572	1.41319	1.41066	1.40812
x1 = 0.799	1.41333	1.41087	1.40834	1.40581	1.40327
x1 = 0.8519	1.4083	1.40578	1.40327	1.40076	1.39826
x1 = 0.8979	1.40384	1.40137	1.39885	1.39641	1.3939
x1 = 0.9489	1.39894	1.39654	1.39405	1.39155	1.3891
